Test results as given in patent US6699676B1, “Uses of ouabain and ouabain-like molecules in apoptosis related pathologies” (Corporation du Centre de Recherche du Centre, Hospitalier …, priority 1999, dated 2004).

What was measured:
VSMC = conditions: moderate elevation of [Ca2+]i, reference (37); cited from earlier work
caspase-3 = assay type: biochemical, rat; conditions: lysates of VSMC-E1A after 6 hours serum withdrawal, 100 mM added, data not shown
Experimental: (§1) To examine this hypothesis, we measured the activity of caspases in lysates of VSMC-E1A subjected to 6 hours serum withdrawal has been measured.
(§2) Caspase activity. VSMC-E1A seeded in 20 cm^2 flasks and treated as indicated in FIG. 5 were scratched, transferred to centrifuge tubes, washed twice with PBS and lysed in 0.5 ml of buffer A contaming 50 mM tris-HCl (pH 7.4), 5 mM MgCl2, 1 mM EGTA and 0.1% CHAPS. Then, 50-100 μl of cell lysate was mixed with 600 μl of buffer A containing 1 mM dithiothreitol, 40 μM YVAD-AMC or DEVD-AMC with or without 1 μM of caspase-1 and capspase-3 inhibitors (Ac-YVAD-CHO and Ac-DEVD-CHO, respectively), incubated for 2 hours at 37° C. and diluted 15-fold with 80 mM glycine-NaOH buffer (pH 10). Fluorescence of the samples was measured at ex=365 run and em=465 run and calibrated with AMC in the range of 10 to 100 nM. To measure caspase activity in control and ouabain-treated Jurkat cells, 5 ml of suspension containing ˜2×10^7 cells was transferred onto ice and sedimented. The pellet of cells was washed and treated with 0.3 ml of medium A in the same way as VSMC. Protein content was estimated by Bradford methods.

caspase-1 = biological target: T1, caspase-1 (Rattus norvegicus, UniProt P43527); assay type: biochemical; conditions: lysates of VSMC-E1A after 6 hours serum withdrawal, 100 mM added, data not shown
T1 construct: we measured the activity of caspases in lysates of VSMC-E1A subjected to 6 hours serum withdrawal; endogenous in cells; host or cells: VSMC-E1A (rat aortic vascular smooth muscle cells transfected with E1A adenoviral protein), cell lysate
T1 sequence (P43527 119-402): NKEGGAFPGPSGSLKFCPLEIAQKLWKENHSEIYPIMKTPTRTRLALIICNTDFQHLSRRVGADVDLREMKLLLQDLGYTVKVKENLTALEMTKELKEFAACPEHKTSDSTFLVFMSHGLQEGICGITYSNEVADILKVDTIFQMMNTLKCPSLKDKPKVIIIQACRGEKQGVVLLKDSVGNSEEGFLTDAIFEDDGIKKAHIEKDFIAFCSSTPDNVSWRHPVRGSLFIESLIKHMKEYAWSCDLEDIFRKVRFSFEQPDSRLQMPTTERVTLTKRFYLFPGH
Experimental: as §1, §2

SMILES	effect on VSMC apoptosis (VSMC)	decrease of caspase-3 activity (caspase-3)	decrease of caspase-1 activity (caspase-1)
C[C@H](CCC(=O)O)C[C@H](C)C[C@H](C)C(=O)/C=C(\O)[C@H](C)C[C@H](C)C/C=C/[C@@H](C)[C@@H](O)[C@@H](C)[C@@H](O)C[C@@H]1CC[C@@](C)([C@H]2CC[C@@](C)([C@@H](C)O)O2)O1 [ionomycin]	did not observe any effect		
C/C=C(/C)C(=O)O[C@H]1C(C)=C2[C@H]([C@@H]1OC(=O)CCCCCCC)[C@@](C)(OC(C)=O)C[C@H](OC(=O)CCC)[C@@]1(O)[C@H]2OC(=O)[C@@]1(C)O [thapsigargin]	did not observe any effect		
C[N+](C)(C)CCO.[Cl-] [choline chloride]		the same level of inhibition	the same level of inhibition
